Values joined by “and” are separate entries in the source; they are usually repeats but may differ in a detail not shown here. Equal entries are not always repeated.
Columns and labels:
HSV-1 = settings: read-out: IC50 against HSV-1; cited from earlier work
PRV [1] = test: microbe, parasite or virus in culture; type: cell-based, pseudorabies virus; settings: for IC50: Suid alphaherpesvirus 1, HeLa, 24 h
enterovirus 71 = settings: read-out: IC50 against enterovirus 71; cited from earlier work
HSV-2 = settings: read-out: IC50 against HSV-2; cited from earlier work
in vitro = settings: human
HCMV = settings: read-out: IC50 against HCMV; cited from earlier work
PRV [2] = type: cell-based, pseudorabies virus

## Oc1cccc2c1[nH]c1c(C3=C[C@@]4(O)CC/C=C\CCCCN5CC[C@@H]3[C@]3(C[C@@H]6/C=C\CCCCN6[C@H]34)C5)nccc12 [8-hydroxymanzamine A]
HSV-1
  IC50: 3700 nM

## COc1cc(N2CCN(C)CC2)ccc1Nc1nccc(-c2cn(C)c3cnccc23)n1 [AZ191]
PRV [1]
  reduction of production of infectious virus particles vs DMSO: 1.1 Log
DF-1 cells
  cytotoxicity / cell viability at the concentration used: did not affect cell viability

## Nc1nc2c(ncn2COCCO)c(=O)[nH]1 [Acyclovir]
PRV [1]
  reduction (positive control), primary screening: 98%
  IC50: 2810 ± 300 nM

## COc1ccc2c(c1)[nH]c1c(C)nccc12 [Compound 2, harmine]
Enterovirus 71
  IC50: 10000 ± 2500 nM
HSV-2
  IC50: 1470 nM
In vitro
  CC50: > 30000 nM
PRV [1]
  inhibitory rate (reduction vs DMSO-treated cells), primary screening: > 90%
  reduction of production of infectious virus particles vs DMSO: 2.3 Log
  IC50: 1190 ± 90 nM
HSV-1
  IC50: 4560 nM
DF-1 cells
  cytotoxicity / cell viability at the concentration used: without cytotoxicity
HCMV
  IC50: 710 ± 19 nM

## COc1ccc2c3ccnc(C)c3n(C)c2c1 [Compound 3, 9-methyl-harmine]
In vitro
  CC50: > 30000 nM
PRV [1]
  inhibitory rate (reduction vs DMSO-treated cells), primary screening: > 90% and > 99%
  IC50: 520 ± 40 nM

## CCn1c2ccccc2c2cc(Nc3ccnc(NCCCN4CCOCC4)n3)ccc21 [EHop-016]
PRV [2]
  viral protein load (Western blot): reduced the viral protein load
DF-1 cells
  cytotoxicity / cell viability at the concentration used: without cytotoxicity

## CCN(c1nc(N)c(C(=O)N=C(N)N)nc1Cl)C(C)C [EIPA, 5-[N-ethyl-N-isopropyl] amiloride]
PRV [2]
  viral protein load (US9 relative to β-actin, densitometry): 0.21 ± 0.01
DF-1 cells
  cytotoxicity / cell viability at the concentration used: without cytotoxicity

## ML-141
PRV [2]
  viral protein load (Western blot): reduced the viral protein load
DF-1 cells
  cytotoxicity / cell viability at the concentration used: without cytotoxicity

## Mazamine A
HSV-1
  IC50: 1000 nM

## manzamine A monohydrochloride
HSV-1
  IC50: 100 nM

## manzamine A monotartrate
HSV-1
  IC50: 100 nM

— article PMC10140166 (The Journal of Biological Chemistry, 2023)
